Data from ChEMBL document CHEMBL4765323, “Design, synthesis, and biological evaluation of novel miconazole analogues containing selenium as potent antifungal agents” (Eur J Med Chem, 2020).
Values after ≈ are worked out from the molar mass of the structure shown. Active and inactive are the calls of the source. No cut-off for these calls is given here.

What was measured:
Candida albicans [1] = test: Antibiofilm activity against FCZ-Resistant Candida albicans CPCC400616 assessed as sessile minimum inhibitory concentration of biofilm formation at 50% after 24 hrs by XTT assay; format: functional
Candida albicans [2] = test: Inhibition of CYP51 in azole-resistant Candida albicans ATCC […] assessed as Eburicol level at 2 ug/ml incubated for 16 hrs by LC-MS analysis relative to control; set-up: scale not given: the % may be the effect or the level left; conditions: dose 2.0 µg/ml
Candida albicans [3] = test: Inhibition of CYP51 in azole-resistant Candida albicans ATCC […] assessed as Obtusifoliol level at 0.03125 ug/ml incubated for 16 hrs by LC-MS analysis relative to control; set-up: scale not given: the % may be the effect or the level left; conditions: dose 0.03125 µg/ml
Candida albicans [4] = test: Inhibition of CYP51 in azole-resistant Candida albicans ATCC […] assessed as ergosterol level at 0.125 ug/ml incubated for 16 hrs by LC-MS analysis relative to control; set-up: scale not given: the % may be the effect or the level left; conditions: dose 0.125 µg/ml
Candida albicans [5] = test: Inhibition of CYP51 in azole-resistant Candida albicans ATCC […] assessed as ergosterol level at 0.03125 ug/ml incubated for 16 hrs by LC-MS analysis relative to control; set-up: scale not given: the % may be the effect or the level left; conditions: dose 0.03125 µg/ml
Candida albicans [6] = test: Inhibition of CYP51 in azole-resistant Candida albicans ATCC […] assessed as Eburicol level at 0.125 ug/ml incubated for 16 hrs by LC-MS analysis relative to control; set-up: scale not given: the % may be the effect or the level left; conditions: dose 0.125 µg/ml
Candida albicans [7] = test: Antifungal activity against Candida albicans CPCC400616 measured after 24 hrs by micro-broth dilution assay; format: functional
Candida albicans [8] = test: Inhibition of CYP51 in azole-resistant Candida albicans ATCC […] assessed as Lanosterol level at 2 ug/ml incubated for 16 hrs by LC-MS analysis relative to control; set-up: scale not given: the % may be the effect or the level left; conditions: dose 2.0 µg/ml
Candida albicans [9] = test: Inhibition of CYP51 in azole-resistant Candida albicans ATCC […] assessed as Lanosterol level at 8 ug/ml incubated for 16 hrs by LC-MS analysis relative to control; set-up: scale not given: the % may be the effect or the level left; conditions: dose 8.0 µg/ml
Candida albicans [10] = test: Antifungal activity against fluconazole-resistant Candida albicans strain 904 measured after 24 hrs by micro-broth dilution assay; format: functional
Aspergillus fumigatus = test: Antifungal activity against Aspergillus fumigatus CGMCC 3.7795 measured after 72 hrs by micro-broth dilution assay; format: functional
Candida albicans [11] = test: Inhibition of CYP51 in azole-resistant Candida albicans ATCC […] assessed as Lanosterol level at 0.5 ug/ml incubated for 16 hrs by LC-MS analysis relative to control; set-up: scale not given: the % may be the effect or the level left; conditions: dose 0.5 µg/ml
Candida albicans [12] = test: Antifungal activity against fluconazole-resistant Candida albicans 17 measured after 24 hrs by micro-broth dilution assay; format: functional
Candida albicans [13] = test: Fungicidal activity against Candida albicans CPCC400616 measured after 48 hrs; format: functional
Candida albicans [14] = test: Inhibition of CYP51 in azole-resistant Candida albicans ATCC […] assessed as Obtusifoliol level at 2 ug/ml incubated for 16 hrs by LC-MS analysis relative to control; set-up: scale not given: the % may be the effect or the level left; conditions: dose 2.0 µg/ml
Candida albicans [15] = test: Inhibition of CYP51 in azole-resistant Candida albicans ATCC […] assessed as ergosterol level at 0.5 ug/ml incubated for 16 hrs by LC-MS analysis relative to control; set-up: scale not given: the % may be the effect or the level left; conditions: dose 0.5 µg/ml
Candida albicans [16] = test: Antibiofilm activity against FCZ-Resistant Candida albicans CPCC400616 assessed as sessile minimum inhibitory concentration of biofilm formation at 80% after 24 hrs by XTT assay; format: functional
Candida albicans [17] = test: Antifungal activity against Candida albicans ATCC SC5314 measured after 24 hrs by micro-broth dilution assay; format: functional
Candida albicans [18] = test: Inhibition of CYP51 in azole-resistant Candida albicans ATCC […] assessed as inhibition of ergosterol biosynthesis by measuring ergosterol content at 8 ug/ml incubated for 16 hrs by LC-MS analysis relative to control; set-up: scale not given: the % may be the effect or the level left; conditions: dose 8.0 µg/ml
Candida parapsilosis = test: Antifungal activity against Candida parapsilosis ATCC 22019 measured after 24 hrs by micro-broth dilution assay; format: functional; conditions: Lodderomyces parapsilosis
Candida albicans [19] = test: Inhibition of CYP51 in azole-resistant Candida albicans ATCC […] assessed as Obtusifoliol level at 0.5 ug/ml incubated for 16 hrs by LC-MS analysis relative to control; set-up: scale not given: the % may be the effect or the level left; conditions: dose 0.5 µg/ml
Candida albicans [20] = test: Antifungal activity against fluconazole-resistant Candida albicans CaR measured after 24 hrs by micro-broth dilution assay; format: functional
Candida albicans [21] = test: Antibiofilm activity against FCZ-Resistant Candida albicans CPCC400616 assessed as sessile minimum inhibitory concentration of biofilm formation at 80% after 1.5 hrs by XTT assay; format: functional
[Candida] zeylanoides = Antifungal activity against Candida zeylanoides CMGCC2.3739 measured after 24 hrs by micro-broth dilution assay; format: functional; conditions: Dujonia zeylanoides
Candida albicans [22] = test: Antibiofilm activity against FCZ-Resistant Candida albicans CPCC400616 assessed as sessile minimum inhibitory concentration of biofilm formation at 80% after 6 hrs by XTT assay; format: functional
[23] = Ratio of MFC for fungicidal activity against Candida albicans CPCC400616 to MIC for Antifungal activity against Candida albicans CPCC400616; format: functional; conditions: time 24 hrs
[24] = Ratio of hemolysis activity in rabbit RBC to MIC for Candida albicans; format: toxicity; conditions: rabbit red blood cells (RBC)
Candida albicans [25] = test: Antifungal activity against Candida albicans 901 measured after 24 hrs by micro-broth dilution assay; format: functional
Candida albicans [26] = test: Antifungal activity against fluconazole-resistant Candida albicans 632 measured after 24 hrs by micro-broth dilution assay; format: functional
Candida albicans [27] = test: Inhibition of CYP51 in azole-resistant Candida albicans ATCC […] assessed as Obtusifoliol level at 8 ug/ml incubated for 16 hrs by LC-MS analysis relative to control; set-up: scale not given: the % may be the effect or the level left; conditions: dose 8.0 µg/ml
Candida albicans [28] = test: Antibiofilm activity against FCZ-Resistant Candida albicans CPCC400616 assessed as sessile minimum inhibitory concentration of biofilm formation at 50% after 6 hrs by XTT assay; format: functional
Candida albicans [29] = test: Inhibition of CYP51 in azole-resistant Candida albicans ATCC […] assessed as Obtusifoliol level at 0.125 ug/ml incubated for 16 hrs by LC-MS analysis relative to control; set-up: scale not given: the % may be the effect or the level left; conditions: dose 0.125 µg/ml
Candida albicans [30] = test: Antibiofilm activity against FCZ-Resistant Candida albicans CPCC400616 assessed as sessile minimum inhibitory concentration of biofilm formation at 80% after 3 hrs by XTT assay; format: functional
Candida albicans [31] = test: Inhibition of CYP51 in azole-resistant Candida albicans ATCC […] assessed as Lanosterol level at 0.03125 ug/ml incubated for 16 hrs by LC-MS analysis relative to control; set-up: scale not given: the % may be the effect or the level left; conditions: dose 0.03125 µg/ml
Candida albicans [32] = test: Antibiofilm activity against FCZ-Resistant Candida albicans CPCC400616 assessed as sessile minimum inhibitory concentration of biofilm formation at 50% after 3 hrs by XTT assay; format: functional
Candida albicans [33] = test: Inhibition of CYP51 in azole-resistant Candida albicans ATCC […] assessed as ergosterol level at 2 ug/ml incubated for 16 hrs by LC-MS analysis relative to control; set-up: scale not given: the % may be the effect or the level left; conditions: dose 2.0 µg/ml
Cryptococcus neoformans = test: Antifungal activity against Cryptococcus neoformans CGMCC2.3161 measured after 72 hrs by micro-broth dilution assay; format: functional
Candida albicans [34] = test: Fungicidal activity against Candida albicans CPCC400616 at MIC to 8 times MIC measured after 24 hrs by time-kill curve assay; format: functional
Candida albicans [35] = test: Inhibition of CYP51 in azole-resistant Candida albicans ATCC […] assessed as Lanosterol level at 0.125 ug/ml incubated for 16 hrs by LC-MS analysis relative to control; set-up: scale not given: the % may be the effect or the level left; conditions: dose 0.125 µg/ml
Nakaseomyces glabratus = test: Antifungal activity against clinical isolate Candida glabrata measured after 24 hrs by micro-broth dilution assay; format: functional
Candida albicans [36] = test: Fungicidal activity against Candida albicans CPCC400616 at 8 times MIC measured after 4 hrs by time-kill curve assay; format: functional, organism-based
Candida albicans [37] = test: Antibiofilm activity against FCZ-Resistant Candida albicans CPCC400616 assessed as sessile minimum inhibitory concentration of biofilm formation at 50% after 1.5 hrs by XTT assay; format: functional
Candida albicans [38] = test: Inhibition of CYP51 in azole-resistant Candida albicans ATCC […] assessed as Eburicol level at 8 ug/ml incubated for 16 hrs by LC-MS analysis relative to control; set-up: scale not given: the % may be the effect or the level left; conditions: dose 8.0 µg/ml
Pichia kudriavzevii = test: Antifungal activity against Candida krusei AS 2.1045 measured after 24 hrs by micro-broth dilution assay; format: functional
Erythrocyte = test: Hemolytic activity in rabbit RBC assessed as hemolysis ratio at 1 ug/ml measured after 3 hrs relative to control; format: ADME, cell-based, Oryctolagus cuniculus; conditions: dose 1 µg/ml
Candida albicans [39] = test: Inhibition of CYP51 in azole-resistant Candida albicans ATCC […] assessed as Eburicol level at 0.5 ug/ml incubated for 16 hrs by LC-MS analysis relative to control; set-up: scale not given: the % may be the effect or the level left; conditions: dose 0.5 µg/ml
Candida albicans [40] = test: Inhibition of CYP51 in azole-resistant Candida albicans ATCC […] assessed as Eburicol level at 0.03125 ug/ml incubated for 16 hrs by LC-MS analysis relative to control; set-up: scale not given: the % may be the effect or the level left; conditions: dose 0.03125 µg/ml

With Clc1ccc(C(Cn2ccnc2)[Se]Cc2ccccc2Cl)c(Cl)c1 (configuration not stated) the Activity (Candida albicans [1]) was greater than 128 µg/mL, the Activity (Candida albicans [2]) was 75.1% and the Activity (Candida albicans [3]) was 1%. It also gave an Activity (Candida albicans [4]) of 80.3%, an Activity (Candida albicans [5]) of 86.4% and an Activity (Candida albicans [6]) of 5.3%. The MIC (Candida albicans [7]) was 0.02 µg/mL (≈ 0.045 µM), the Activity (Candida albicans [8]) was 13.6% and the Activity (Candida albicans [9]) was 12.4%. The MIC (Candida albicans [10]) was 0.25 µg/mL (≈ 0.562 µM), the MIC (Aspergillus fumigatus) was 2 µg/mL (≈ 4.5 µM) and the Activity (Candida albicans [11]) was 10%. The MIC (Candida albicans [12]) was 0.13 µg/mL (≈ 0.292 µM), the MIC (Candida albicans [13]) was 0.125 µg/mL (≈ 0.281 µM) and the Activity (Candida albicans [14]) was 7.8%. It also gave an Activity (Candida albicans [15]) of 78.9%, an Activity (Candida albicans [16]) greater than 128 µg/mL and an MIC (Candida albicans [17]) of 0.01 µg/mL (≈ 0.0225 µM). For the same compound, the Activity (Candida albicans [18]) was 77.7%, the MIC (Candida parapsilosis) was 0.13 µg/mL (≈ 0.292 µM) and the Activity (Candida albicans [19]) was 17.4%. It also gave an MIC (Candida albicans [20]) of 0.06 µg/mL (≈ 0.135 µM), an Activity (Candida albicans [21]) of 8 µg/mL and an MIC ([Candida] zeylanoides) of 1 µg/mL (≈ 2.25 µM). The Activity (Candida albicans [22]) was greater than 128 µg/mL, the MFC/MIC ratio [23] was 8 and the selectivity ratio [24] was 256. It also gave an MIC (Candida albicans [25]) of 0.5 µg/mL (≈ 1.12 µM), an MIC (Candida albicans [26]) of 1 µg/mL (≈ 2.25 µM) and an Activity (Candida albicans [27]) of 8.1%. For the same compound, the Activity (Candida albicans [28]) was 128 µg/mL, the Activity (Candida albicans [29]) was 9.5% and the Activity (Candida albicans [30]) was 64 µg/mL. The Activity (Candida albicans [31]) was 0%, the Activity (Candida albicans [32]) was 16 µg/mL and the Activity (Candida albicans [33]) was 19.8%. It also gave an MIC (Cryptococcus neoformans) of 0.25 µg/mL (≈ 0.562 µM), an Activity (Candida albicans [34]) greater than 3 log10CFU/ml and an Activity (Candida albicans [35]) of 11.6%. For the same compound, the MIC (Nakaseomyces glabratus) was 0.5 µg/mL (≈ 1.12 µM), the Activity (Candida albicans [36]) was “Active” and the Activity (Candida albicans [37]) was 4 µg/mL. The Activity (Candida albicans [38]) was 64.6%, the MIC (Pichia kudriavzevii) was 0.13 µg/mL (≈ 0.292 µM) and the Activity (Erythrocyte) was 0 µg/mL. For the same compound, the Activity (Candida albicans [39]) was 70.3% and the Activity (Candida albicans [40]) was 7.4%.
